Experimental data reported in ChEMBL document CHEMBL4507286 (2021).
Calls of active or inactive are those of the source. No cut-off for these calls is given here.

Key:
[1] = target: Sigma non-opioid intracellular receptor 1 (Homo sapiens) (UniProt Q99720); settings: Compound concentration 10.0 uM
[2] = target: Sigma intracellular receptor 2 (Homo sapiens) (UniProt Q5BJF2); settings: Compound concentration 10.0 uM
[3] = target: Tyrosine-protein kinase receptor Tie-1 (Homo sapiens) (UniProt P35590)
[4] = target: Delta-type opioid receptor (Homo sapiens) (UniProt P41143); settings: Compound concentration 10.0 uM
[5] = target: NUAK family SNF1-like kinase 2 (Homo sapiens) (UniProt Q9H093)
[6] = target: Alpha-1D adrenergic receptor (Homo sapiens) (UniProt P25100); settings: Compound concentration 10.0 uM
[7] = target: Myosin-IIIb (Homo sapiens) (UniProt Q8WXR4)
[8] = target: Calcium/calmodulin-dependent protein kinase type 1D (Homo sapiens) (UniProt Q8IU85)
[9] = target: GABA-A receptor; anion channel (Rattus norvegicus) (UniProt O09028+P15431+P18506+P18508+P19969+P20236+P23574+P23576+P28471+P28473+P30191+P62813+P63079+P63138+Q91ZM7+Q9ES14); settings: Compound concentration 10.0 uM
[10] = target: Ankyrin repeat and protein kinase domain-containing protein 1 (Homo sapiens) (UniProt Q8NFD2)
[11] = target: Serine/threonine-protein kinase PLK2 (Homo sapiens) (UniProt Q9NYY3)
[12] = target: D(2) dopamine receptor (Homo sapiens) (UniProt P14416); settings: Compound concentration 10.0 uM
[13] = target: 5-hydroxytryptamine receptor 1E (Homo sapiens) (UniProt P28566); settings: Compound concentration 10.0 uM
[14] = target: Beta-1 adrenergic receptor (Homo sapiens) (UniProt P08588); settings: Compound concentration 10.0 uM
[15] = target: Serine/threonine-protein kinase haspin (Homo sapiens) (UniProt Q8TF76)
[16] = target: 5-hydroxytryptamine receptor 2B (Homo sapiens, UniProt P41595); experiment: GPCRScan assay: inhibition of 5-HT2B; design: radioligand conc. used [nm] 1.0 – 2.0, parental cells stable HEK
[17] = target: Myosin light chain kinase, smooth muscle (Homo sapiens) (UniProt Q15746)
[18] = target: cGMP-dependent protein kinase 2 (Homo sapiens, UniProt Q13237); experiment: Invitrogen kinase screen (PRKG2)
[19] = target: T1, Mitogen-activated protein kinase 1 (Homo sapiens, UniProt P28482)
[20] = target: Serine/threonine-protein kinase Sgk1 (Homo sapiens, UniProt O00141); experiment: Invitrogen kinase screen (SGK)
[21] = target: T1, Mitogen-activated protein kinase 1; experiment: Cell Assay: Inhibition of RSK phosphorylation (pRSK with 40% mouse serum )
[22] = target: T1, Mitogen-activated protein kinase 1; experiment: Cell Assay: Inhibition of RSK phosphorylation (pRSK A375SM); format: cell-based, A375-SM
[23] = target: Serine/threonine-protein kinase MARK2 (Homo sapiens, UniProt Q7KZI7); experiment: Invitrogen kinase screen (MARK2)
[24] = target: Cyclin-dependent kinase 2 (Homo sapiens, UniProt P24941); experiment: Invitrogen kinase screen (CDK2)
[25] = target: Serine/threonine-protein kinase ULK1 (Homo sapiens, UniProt O75385); experiment: Inhibition of ULK1 at compound concentration of 10.0 uM using the ScanMax (DiscoverX)
[26] = target: G protein-coupled receptor kinase 3 (Homo sapiens, UniProt P35626); experiment: Inhibition of GRK3 at compound concentration of 10.0 uM using the ScanMax (DiscoverX)
[27] = target: Dual specificity protein kinase CLK2 (Homo sapiens, UniProt P49760); experiment: Invitrogen kinase screen (CLK2)
[28] = target: 5-hydroxytryptamine receptor 6 (Homo sapiens) (UniProt P50406); settings: Compound concentration 10.0 uM
[29] = target: T1, Mitogen-activated protein kinase 1; experiment: Invitrogen kinase screen (MAPK1)
[30] = target: Glycogen synthase kinase-3 alpha (Homo sapiens, UniProt P49840); experiment: Invitrogen kinase screen (GSK3A)
[31] = target: Dual specificity protein kinase CLK4 (Homo sapiens, UniProt Q9HAZ1); experiment: Inhibition of CLK4 at compound concentration of 10.0 uM using the ScanMax (DiscoverX)
[32] = target: Cyclin-dependent kinase 5 (Homo sapiens, UniProt Q00535); experiment: Invitrogen kinase screen (CDK5)
[33] = NanoBRET (MAPK1, SGC Frankfurt); settings: Homo sapiens
[34] = NanoBRET (MAPK3, SGC Frankfurt); settings: Homo sapiens
[35] = target: Glycogen synthase kinase-3 beta (Homo sapiens, UniProt P49841); experiment: Invitrogen kinase screen (GSK3B)
[36] = target: Serine/threonine-protein kinase TBK1 (Homo sapiens, UniProt Q9UHD2); experiment: Invitrogen kinase screen (TBK1)
[37] = target: Muscarinic acetylcholine receptor M1 (Homo sapiens) (UniProt P11229); settings: Compound concentration 10.0 uM
[38] = target: Serine/threonine-protein kinase 26 (Homo sapiens, UniProt Q9P289); experiment: Invitrogen kinase screen (STK26)
[39] = target: Cyclin-dependent kinase 7 (Homo sapiens, UniProt P50613); experiment: Inhibition of CDK7 at compound concentration of 10.0 uM using the ScanMax (DiscoverX)
[40] = target: Beta-2 adrenergic receptor (Homo sapiens) (UniProt P07550); settings: Compound concentration 10.0 uM
[41] = target: 5-hydroxytryptamine receptor 1B (Homo sapiens) (UniProt P28222); settings: Compound concentration 10.0 uM
[42] = target: T1, Mitogen-activated protein kinase 1; experiment: Cell Assay: Inhibition of RSK phosphorylation (pRSK with 40% human serum)
[43] = target: Serine/threonine-protein kinase haspin (Homo sapiens, UniProt Q8TF76); experiment: Inhibition of GSG2 at compound concentration of 10.0 uM using the ScanMax (DiscoverX)
[44] = Compound concentration 1000.0 nM
[45] = Compound concentration 100.0 nM

T1 sequence (P28482 whole entry): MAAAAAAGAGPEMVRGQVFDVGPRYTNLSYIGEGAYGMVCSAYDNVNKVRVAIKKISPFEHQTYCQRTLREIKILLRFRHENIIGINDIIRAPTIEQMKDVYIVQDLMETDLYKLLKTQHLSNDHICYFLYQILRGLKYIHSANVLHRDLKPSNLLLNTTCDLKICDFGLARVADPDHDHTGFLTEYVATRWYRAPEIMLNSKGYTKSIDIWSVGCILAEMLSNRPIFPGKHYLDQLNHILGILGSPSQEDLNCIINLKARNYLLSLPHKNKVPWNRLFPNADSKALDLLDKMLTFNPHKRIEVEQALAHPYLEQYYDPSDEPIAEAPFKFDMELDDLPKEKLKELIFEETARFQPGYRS
Tyrosine-protein kinase receptor Tie-1 (Homo sapiens), sequence (P35590 whole entry): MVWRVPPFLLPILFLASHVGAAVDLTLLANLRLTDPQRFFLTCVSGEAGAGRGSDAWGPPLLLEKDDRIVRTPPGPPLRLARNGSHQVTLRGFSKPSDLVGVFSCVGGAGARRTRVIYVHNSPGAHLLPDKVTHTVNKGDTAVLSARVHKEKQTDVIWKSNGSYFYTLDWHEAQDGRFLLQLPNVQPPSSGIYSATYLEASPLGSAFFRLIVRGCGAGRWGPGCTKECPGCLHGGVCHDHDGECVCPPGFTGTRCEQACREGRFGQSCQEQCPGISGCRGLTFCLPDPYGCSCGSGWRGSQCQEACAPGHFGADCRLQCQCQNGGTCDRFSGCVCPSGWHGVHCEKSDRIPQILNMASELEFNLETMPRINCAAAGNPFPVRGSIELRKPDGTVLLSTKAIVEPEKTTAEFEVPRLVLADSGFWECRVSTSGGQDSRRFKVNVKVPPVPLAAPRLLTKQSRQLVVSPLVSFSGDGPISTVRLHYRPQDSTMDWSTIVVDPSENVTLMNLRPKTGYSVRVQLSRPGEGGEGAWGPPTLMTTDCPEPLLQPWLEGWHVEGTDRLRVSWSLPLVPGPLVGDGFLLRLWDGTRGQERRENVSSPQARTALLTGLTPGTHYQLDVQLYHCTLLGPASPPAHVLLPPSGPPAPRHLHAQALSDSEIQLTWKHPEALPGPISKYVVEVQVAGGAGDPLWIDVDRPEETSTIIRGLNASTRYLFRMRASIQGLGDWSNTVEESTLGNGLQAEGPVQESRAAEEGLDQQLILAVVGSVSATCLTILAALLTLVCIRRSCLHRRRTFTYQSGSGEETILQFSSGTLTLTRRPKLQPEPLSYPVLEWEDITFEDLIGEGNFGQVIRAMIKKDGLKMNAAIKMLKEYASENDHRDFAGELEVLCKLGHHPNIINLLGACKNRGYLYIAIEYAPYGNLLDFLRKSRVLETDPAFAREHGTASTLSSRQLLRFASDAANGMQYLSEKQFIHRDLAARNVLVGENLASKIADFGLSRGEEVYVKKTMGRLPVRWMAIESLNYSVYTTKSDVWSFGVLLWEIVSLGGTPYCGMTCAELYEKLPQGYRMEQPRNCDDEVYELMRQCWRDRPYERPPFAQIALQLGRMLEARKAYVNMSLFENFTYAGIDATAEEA
Myosin light chain kinase, smooth muscle (Homo sapiens), sequence (Q15746 whole entry): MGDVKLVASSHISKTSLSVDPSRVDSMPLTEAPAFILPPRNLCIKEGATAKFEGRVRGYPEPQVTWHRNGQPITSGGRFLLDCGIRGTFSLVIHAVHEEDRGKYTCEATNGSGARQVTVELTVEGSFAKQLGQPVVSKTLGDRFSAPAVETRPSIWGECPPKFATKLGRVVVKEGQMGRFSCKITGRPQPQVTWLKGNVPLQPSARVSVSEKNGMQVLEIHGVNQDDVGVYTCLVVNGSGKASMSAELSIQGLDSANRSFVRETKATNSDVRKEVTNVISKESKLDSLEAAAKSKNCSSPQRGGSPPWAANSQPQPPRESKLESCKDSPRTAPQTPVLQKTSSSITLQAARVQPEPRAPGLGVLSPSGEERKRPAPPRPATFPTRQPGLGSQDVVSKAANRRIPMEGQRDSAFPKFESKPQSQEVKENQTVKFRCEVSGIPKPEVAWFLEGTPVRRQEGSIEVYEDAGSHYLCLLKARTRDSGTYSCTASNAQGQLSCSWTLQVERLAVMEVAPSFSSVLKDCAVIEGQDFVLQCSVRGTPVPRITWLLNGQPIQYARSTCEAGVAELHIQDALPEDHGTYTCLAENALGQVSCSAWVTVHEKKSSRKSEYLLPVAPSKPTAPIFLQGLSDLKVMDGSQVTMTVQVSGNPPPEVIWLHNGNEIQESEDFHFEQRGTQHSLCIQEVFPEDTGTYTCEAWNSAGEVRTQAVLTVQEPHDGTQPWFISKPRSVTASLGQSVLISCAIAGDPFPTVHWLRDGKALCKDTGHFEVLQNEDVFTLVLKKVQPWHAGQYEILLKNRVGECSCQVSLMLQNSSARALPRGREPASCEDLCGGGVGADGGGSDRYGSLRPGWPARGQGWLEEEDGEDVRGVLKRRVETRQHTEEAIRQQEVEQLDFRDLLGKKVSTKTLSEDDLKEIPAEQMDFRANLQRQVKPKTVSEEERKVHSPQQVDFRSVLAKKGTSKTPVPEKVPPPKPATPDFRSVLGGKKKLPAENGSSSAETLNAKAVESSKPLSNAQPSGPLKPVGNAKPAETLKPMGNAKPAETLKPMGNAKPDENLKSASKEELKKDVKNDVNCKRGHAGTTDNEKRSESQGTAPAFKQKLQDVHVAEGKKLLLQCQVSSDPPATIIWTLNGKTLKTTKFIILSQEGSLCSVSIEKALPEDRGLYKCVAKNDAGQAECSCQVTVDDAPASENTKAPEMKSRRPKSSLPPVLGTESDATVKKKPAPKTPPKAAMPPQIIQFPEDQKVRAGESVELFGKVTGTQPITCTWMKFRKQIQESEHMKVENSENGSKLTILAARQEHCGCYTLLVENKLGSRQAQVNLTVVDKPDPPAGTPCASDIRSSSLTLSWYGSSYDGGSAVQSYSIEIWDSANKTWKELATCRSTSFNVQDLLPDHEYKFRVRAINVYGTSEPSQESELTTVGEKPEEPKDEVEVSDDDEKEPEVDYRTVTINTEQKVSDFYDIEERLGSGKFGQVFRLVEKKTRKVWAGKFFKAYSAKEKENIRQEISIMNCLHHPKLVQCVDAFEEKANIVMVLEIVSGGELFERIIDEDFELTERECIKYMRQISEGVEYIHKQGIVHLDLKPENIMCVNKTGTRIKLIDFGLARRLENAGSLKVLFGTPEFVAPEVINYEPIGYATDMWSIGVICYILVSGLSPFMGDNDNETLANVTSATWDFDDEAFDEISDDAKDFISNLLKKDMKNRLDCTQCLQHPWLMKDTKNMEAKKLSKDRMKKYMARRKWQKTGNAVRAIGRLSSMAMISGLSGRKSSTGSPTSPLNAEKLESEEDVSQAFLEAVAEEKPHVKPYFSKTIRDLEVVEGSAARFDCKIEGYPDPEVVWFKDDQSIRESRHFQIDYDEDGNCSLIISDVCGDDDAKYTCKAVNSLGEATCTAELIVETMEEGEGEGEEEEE
Calcium/calmodulin-dependent protein kinase type 1D (Homo sapiens), sequence (Q8IU85 whole entry, looked up): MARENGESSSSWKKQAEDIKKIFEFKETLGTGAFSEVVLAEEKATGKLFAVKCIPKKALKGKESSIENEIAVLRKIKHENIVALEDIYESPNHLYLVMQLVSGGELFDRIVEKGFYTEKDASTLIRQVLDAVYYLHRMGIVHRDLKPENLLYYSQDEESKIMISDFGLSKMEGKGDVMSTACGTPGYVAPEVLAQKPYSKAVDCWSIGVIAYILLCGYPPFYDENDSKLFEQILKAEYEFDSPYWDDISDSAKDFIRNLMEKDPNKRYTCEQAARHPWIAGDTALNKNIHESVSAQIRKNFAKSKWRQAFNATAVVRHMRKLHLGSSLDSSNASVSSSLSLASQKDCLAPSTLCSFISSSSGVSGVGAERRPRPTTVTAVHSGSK
NUAK family SNF1-like kinase 2 (Homo sapiens), sequence (Q9H093 whole entry): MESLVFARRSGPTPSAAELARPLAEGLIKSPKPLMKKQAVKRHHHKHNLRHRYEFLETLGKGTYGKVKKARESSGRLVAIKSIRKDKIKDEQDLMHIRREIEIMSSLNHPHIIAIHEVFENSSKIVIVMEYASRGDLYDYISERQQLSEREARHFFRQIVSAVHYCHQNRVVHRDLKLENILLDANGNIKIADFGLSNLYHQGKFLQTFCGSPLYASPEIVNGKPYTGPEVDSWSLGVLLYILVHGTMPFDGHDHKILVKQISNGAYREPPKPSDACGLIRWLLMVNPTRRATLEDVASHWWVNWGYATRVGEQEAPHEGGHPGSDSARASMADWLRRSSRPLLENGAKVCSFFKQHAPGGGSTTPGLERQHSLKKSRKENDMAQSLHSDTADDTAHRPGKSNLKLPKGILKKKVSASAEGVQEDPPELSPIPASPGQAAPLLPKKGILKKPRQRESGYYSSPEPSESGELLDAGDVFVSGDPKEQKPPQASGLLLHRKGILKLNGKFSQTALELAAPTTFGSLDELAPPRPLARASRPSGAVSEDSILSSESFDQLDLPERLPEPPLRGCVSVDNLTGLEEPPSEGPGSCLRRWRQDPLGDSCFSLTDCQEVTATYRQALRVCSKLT
Beta-1 adrenergic receptor (Homo sapiens), sequence (P08588 whole entry, looked up): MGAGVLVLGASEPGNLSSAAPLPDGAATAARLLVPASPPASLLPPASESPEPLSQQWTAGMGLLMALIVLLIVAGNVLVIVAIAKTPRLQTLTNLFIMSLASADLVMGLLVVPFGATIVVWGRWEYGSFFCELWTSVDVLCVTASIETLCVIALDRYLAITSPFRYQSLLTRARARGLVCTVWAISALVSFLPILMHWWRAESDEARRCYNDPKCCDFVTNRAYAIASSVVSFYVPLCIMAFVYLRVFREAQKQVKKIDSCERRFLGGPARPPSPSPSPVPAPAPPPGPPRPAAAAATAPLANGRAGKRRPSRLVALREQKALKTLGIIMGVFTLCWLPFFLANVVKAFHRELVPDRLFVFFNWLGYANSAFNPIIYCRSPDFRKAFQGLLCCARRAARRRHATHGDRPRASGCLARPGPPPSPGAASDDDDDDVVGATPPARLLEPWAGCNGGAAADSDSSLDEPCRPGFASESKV
Sigma intracellular receptor 2 (Homo sapiens), sequence (Q5BJF2 whole entry): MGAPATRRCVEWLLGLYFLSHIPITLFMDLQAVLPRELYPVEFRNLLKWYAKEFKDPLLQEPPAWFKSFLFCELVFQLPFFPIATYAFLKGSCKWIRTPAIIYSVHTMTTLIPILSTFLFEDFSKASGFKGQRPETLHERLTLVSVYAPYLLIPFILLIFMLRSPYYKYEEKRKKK

Compound `C[C@H](NC(=O)Nc1cc2[nH]ncc2c(CO)n1)c1ccccn1` [ERKi-NC] has an inhibition [1] of 12.8%, an inhibition [2] of 20.8% and a residual activity [3, 44] of 86.8%. The inhibition [4] was 2.71%, the residual activity [5, 44] was 100% and the inhibition [6] was -7.9%. The residual activity [7, 44] was 67.6%, the residual activity [8, 44] was 100% and the inhibition [9] was 25.5%. For the same compound, the residual activity [10, 44] was 100%, the residual activity [11, 44] was 100% and the inhibition [12] was 17.7%. It also gave an inhibition [13] of -8.44%, an inhibition [14] of 28.2% and a residual activity [15, 44] of 72.1%. It also gave a Ki [16] of 538 nM and a residual activity [17, 44] of 100%.

With `C[C@@H](NC(=O)Nc1cc2[nH]ncc2c(CO)n1)c1ccccc1` [ERKi] the residual activity [3, 45] was 71.2%, the IC50 [18] was 950 nM (not active) and the Kd [19] was 4.8 nM (active). The IC50 [20] was 270 nM (not active), the IC50 [21] was 788 nM (active) and the IC50 [22] was 280 nM (active). For the same compound, the residual activity [5, 45] was 76%, the IC50 [23] was 1400 nM (not active) and the residual activity [7, 45] was 82.5%. For the same compound, the residual activity [8, 45] was 83.3%, the IC50 [24] was 790 nM (not active) and the Kd [25] was 140 nM (not active). The Kd [26] was 140 nM (not active), the IC50 [27] was 940 nM (not active) and the inhibition [28] was 8.67%. For the same compound, the IC50 [29] was 4 nM (active), the IC50 [30] was 210 nM (not active) and the Kd [31] was 230 nM (not active). For the same compound, the IC50 [32] was 1200 nM (not active), the residual activity [10, 45] was 78.2% and the EC50 [33] was 95 nM (active). The IC50 [33] was 850 nM (active), the EC50 [34] was 32 nM (active) and the IC50 [34] was 6690 nM. For the same compound, the IC50 [35] was 540 nM (not active), the residual activity [11, 45] was 95.1% and the IC50 [36] was 770 nM (not active). For the same compound, the inhibition [37] was -1.16%, the IC50 [38] was 880 nM (not active) and the inhibition [14] was 6.72%. For the same compound, the Kd [39] was 230 nM (not active), the inhibition [40] was 1.36% and the inhibition [41] was 4.23%. The residual activity [15, 45] was 53.7%, the IC50 [42] was 225 nM (active) and the residual activity [17, 45] was 83.5%. For the same compound, the Kd [43] was 130 nM (not active).
